Measurements taken from patent publication US7432283B2, “Heterocyclic GABAA subtype selective receptor modulators” (Roche Palo Alto LLC, priority 2004, dated 2008).
Where a name gives a salt, the structure may show the parent alone.

| SMILES | melting point [°C] |
| --- | --- |
| CC/C=C(\CCC)c1c2c(nn1C)N(c1c(C)cc(C)cc1Cl)CCC2 [Compound 3-1, 7-(2-Chloro-4,6-dimethylphenyl)-2-methyl-3-(1-propylbut-1-enyl)-4,5,6,7-tetrahydro-2H-pyrazolo[3,4-b]pyridine] | 86.7 to 88.2 |
| COCCC(O)(COC)c1c2c(nn1C)N(c1c(C)cc(C)cc1C)CCC2 (centres unmarked) [Compound 2-7, 1,4-Dimethoxy-2-[2-methyl-7-(2,4,6-trimethylphenyl)-4,5,6,7-tetrahydro-2H-pyrazolo[3,4-b]pyridin-3-yl]butan-2-ol] | 107.9 to 110.9 |
| COc1cccc(OC)c1-c1c2c(nn1C)N(c1c(C)cc(C)cc1C)CCC2 [Compound 9-6, 3-(2,6-Dimethoxy-phenyl)-2-methyl-7-(2,4,6-trimethyl-phenyl)-4,5,6,7-tetrahydro-2H-pyrazolo[3,5-b]pyridine] | 169.9 to 172.8 |
| CCCC(CCC)c1c2c(nn1C)N(c1c(C)cc(C)cc1C)CCC2 [Compound 4-2, 2-Methyl-3-(1-propylbutyl)-7-(2,4,6-trimethylphenyl)-4,5,6,7-tetrahydro-2H-pyrazolo[3,4-b]pyridine] | 91.5 to 92 |
| CO/N=C/c1c2c(nn1C)N(c1c(C)cc(C)cc1C)CCC2 [Compound 6-5, 2-Methyl-7-(2,4,6-trimethyl-phenyl)-4,5,6,7-tetrahydro-2H-pyrazolo[3,4-b] pyridine-3-carbaldehyde O-methyl-oxime] | 89 to 90.1 |
| Cc1cc(C)c(N2CCCc3c2nn(C)c3N)c(Cl)c1 [Compound 5-45, 7-(2-Chloro-4,6-dimethyl-phenyl)-2-methyl-4,5,6,7-tetrahydro-2H-pyrazolo[3,4-b]pyridin-3-ylamine] | 234 to 236 |
| CCOC(=O)Nc1c2c(nn1C)N(c1c(C)cc(C)cc1Cl)CCC2 [Compound 5-4, [7-(2-Chloro-4,6-dimethylphenyl)-2-methyl-4,5,6,7-tetrahydro-2H-pyrazolo[3,4-b]pyridin-3-yl]carbamic acid ethyl ester] | 204 to 207.8 |
| Cc1cc(C)c(N2C(=O)CCc3c2nn(C)c3Br)c(C)c1 [Compound 9-4, 3-Bromo-2-methyl-7-(2,4,6-trimethyl-phenyl)-2,4,5,7-tetrahydro-pyrazolo[3,4-b]pyridin-6-one] | 256.8 to 258 |
| CCCC(CCC)c1c2c(nn1C)N(c1c(C)cc(C)cc1C)CCCC2 [Compound 4-4, 2-Methyl-3-(1-propylbutyl)-8-(2,4,6-trimethylphenyl)-2,4,5,6,7,8-hexahydro-1,2,8-triazaazulene] | 96 to 98.1 |
| CCCN(CCC)c1c2c(nn1C)N(c1c(C)cc(C)cc1C)CCC2 [Compound 5-35, [2-Methyl-7-(2,4,6-trimethylphenyl)-4,5,6,7-tetrahydro-2H-pyrazolo[3,4-b]pyridin-3-yl]-dipropylamine] | 88.9 to 91.5 |
| CCCC(O)(CCC)c1c2c(nn1C)N(c1c(C)cc(C)cc1C)CCC2 [Compound 2-2, 4-[2-Methyl-7-(2,4,6-trimethylphenyl)-4,5,6,7-tetrahydro-2H-pyrazolo[3,4-b]pyridin-3-yl] heptan-4-ol] | 126 to 127.9 |
| Cc1cc(C)c(N2CCCc3c2nn(C)c3CN2CCc3ccccc3C2)c(C)c1 (as salt: hydrochloride) [Compound 7-5, 2-[2-Methyl-7-(2,4,6-trimethyl-phenyl)-4,5,6,7-tetrahydro-2H-pyrazolo[3,4-b]pyridin-3-ylmethyl]-1,2,3,4-tetetrahydroisoquinolinedihydrochloride] | 236.4 to 241 |
| Cc1cc(C)c(N2CCCc3c2nn(C)c3C=O)c(C)c1 [Compound 2-24, 2-Methyl-7-(2,4,6-trimethyl-phenyl)-4,5,6,7-tetrahydro-2H-pyrazolo[3,4-b] pyridine-3-carbaldehyde] | 120.5 to 123.5 |
| Cc1cc(C)c(N2CCCc3c2nn(C)c3C(C)C)c(C)c1 [Compound 4-7, 3-Isopropyl-2-methyl-7-(2,4,6-trimethyl-phenyl)-4,5,6,7-tetrahydro-2H-pyrazolo[3,4-b]pyridine] | 105.9 to 108.9 |
| Cc1cc(C)c(N2CCCc3cn(C)nc32)c(Cl)c1 [Compound 2-13, 7-(2-Chloro-4,6-dimethylphenyl)-2-methyl-4,5,6,7-tetrahydro-2H-pyrazolo[3,4-b]pyridine] | 97 to 98 |
| CSc1c2c(nn1C)N(c1c(C)cc(C)cc1C)CCC2 [Compound 2-20, 2-Methyl-3-methylsulfanyl-7-(2,4,6-trimethyl-phenyl)-4,5,6,7-tetrahydro-2H-pyrazolo[3,4-b]pyridine] | 90.3 to 91.7 |
| CCc1c2c(nn1C)N(c1c(C)cc(C)cc1C)CCC2 [Compound 4-5, 3-Ethyl-2-methyl-7-(2,4,6-trimethyl-phenyl)-4,5,6,7-tetrahydro-2H-pyrazolo[3,4-b]pyridine] | 79.7 to 81.4 |
| CC(O)c1c2c(nn1C)N(c1ccc(Cl)cc1Cl)CCC2 (centres unmarked) [Compound 2-14, 1-[7-(2,4-Dichloro-phenyl)-2-methyl-4,5,6,7-tetrahydro-2H-pyrazolo[3,4-b]pyridin-3-yl]-ethanol] | 56.7 to 64 |
| Cc1cc(C)c(N2CCCc3c2nn(C)c3Cl)c(C)c1 [Compound 1-11, 3-chloro-7-(2,4,6-trimethyl-phenyl)-2-methyl-4,5,6,7-tetrahydro-2H-pyrazolo[3,4-b]pyridine] | 83 to 86 |
| COCC(O)(COC)c1c2c(nn1C)N(c1c(C)cc(C)cc1C)CCC2 [Compound 2-6, 1,3-Dimethoxy-2-[2-methyl-7-(2,4,6-trimethylphenyl)-4,5,6,7-tetrahydro-2H-pyrazolo[3,4-b]pyridin-3-yl]propan-2-ol] | 120.3 to 121.8 |
| Cc1cc(C)c(N2CCCc3c2[nH]n(C)c3=O)c(Cl)c1 [Compound 1-15, 7-(2-Chloro-4,6-dimethyl-phenyl)-2-methyl-1,2,4,5,6,7-hexahydro-pyrazolo[3,4-b]pyridin-3-one] | 103 to 109 |
| Cc1cc(C)c(N2CCCc3c2nn(C)c3N)c(C)c1 [Compound 5-52, 2-methyl-7-(2,4,6-trimethyl-phenyl)-4,5,6,7-tetrahydro-2H-pyrazolo[3,4-b]pyridin-3-ylamine] | 208.8 to 210.9 |
| CCCC(COC)Nc1c2c(nn1C)N(c1c(C)cc(C)cc1C)CCC2 (centres unmarked) [Compound 5-41, (1-Methoxymethylbutyl)-[2-methyl-7-(2,4,6-trimethylphenyl)-4,5,6,7-tetrahydro-2H-pyrazolo[3,4-b]pyridin-3-yl]-amine] | 100.1 to 104.4 |
| CCCC(O)(c1nccn1CC)c1c2c(nn1C)N(c1c(C)cc(C)cc1C)CCC2 (centres unmarked) [Compound 2-11, 1-(1-Ethyl-1H-imidazol-2-yl)-1-[2-methyl-7-(2,4,6-trimethylphenyl)-4,5,6,7-tetrahydro-2H-pyrazolo[3,4-b]pyridin-3-yl]butan-1-ol] | 94.9 to 100.9 |
| Cc1cc(C)c(N2CCOc3cn(C)nc32)c(C)c1 [Compound 9-5, 2-Methyl-7-(2,4,6-trimethyl-phenyl)-2,5,6,7-tetrahydro-pyrazolo[4,3-b][1,4]oxazine] | 103.6 to 104.8 |
| Cc1cc(C)c(N2CCCc3c2nn(C)c3S(C)(=O)=O)c(C)c1 [Compound 2-21, 3-Methanesulfonyl-2-methyl-7-(2,4,6-trimethyl-phenyl)-4,5,6,7-tetrahydro-2H-pyrazolo[3,4-b]pyridine] | 181.6 to 183 |
